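These data come from cells grown in 96-well plates and exposed to compound for 48 hours at five concentrations. GI50: concentration for 50% inhibition of growth. Definition used: TGI = concentration required for complete inhibition of growth.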
Columns and labels:
Experiment in all cases: NCI anticancer screen, dose series, 48 h
RXF 393 renal = test system: RXF 393 renal
CCRF-CEM leukemia = test system: CCRF-CEM leukemia
SF-268 CNS = test system: SF-268 CNS
UACC-62 melanoma = test system: UACC-62 melanoma
SK-MEL-2 melanoma = test system: SK-MEL-2 melanoma
NCI-H460 lung = test system: NCI-H460 lung
HS 578T breast = test system: HS 578T breast
DU-145 prostate = test system: DU-145 prostate
RPMI-8226 leukemia = test system: RPMI-8226 leukemia
KM12 colon = test system: KM12 colon

Compound	GI50 (RXF 393 renal) [µM]	TGI (RXF 393 renal) [µM]	GI50 (CCRF-CEM leukemia) [µM]	TGI (CCRF-CEM leukemia) [µM]	GI50 (SF-268 CNS) [µM]	TGI (SF-268 CNS) [µM]	GI50 (UACC-62 melanoma) [µM]	TGI (UACC-62 melanoma) [µM]	GI50 (SK-MEL-2 melanoma) [µM]	TGI (SK-MEL-2 melanoma) [µM]	GI50 (NCI-H460 lung) [µM]	TGI (NCI-H460 lung) [µM]	GI50 (HS 578T breast) [µM]	TGI (HS 578T breast) [µM]	GI50 (DU-145 prostate) [µM]	TGI (DU-145 prostate) [µM]	GI50 (RPMI-8226 leukemia) [µM]	TGI (RPMI-8226 leukemia) [µM]	GI50 (KM12 colon) [µM]	TGI (KM12 colon) [µM]
Cc1ccc(C(=O)CN(/C=C/C(=O)C(F)(F)F)c2ccc(S(N)(=O)=O)cc2)cc1	> 100	> 100	30.3	> 100	> 100	> 100	> 100	> 100	> 100	> 100	> 100	> 100	55.3	> 100	> 100	> 100	29.7	> 100	31.4	> 100
CN1C/C=C\CCOc2cccc(c2)-c2ccnc(n2)Nc2cccc(c2)C1	0.0221	0.0501	0.0349	1.04	0.0561	0.548	0.0259	0.148	0.0397	0.132	0.0398	1.14	0.0641	0.82	0.0562	6	0.0804	0.318	0.0377	0.506
COc1cc(/C=C/c2cc(/C=C/c3ccc(O)c(OC)c3)n(C(=O)Nc3ccc(F)c(Cl)c3)n2)ccc1O	0.249	0.828	0.131	> 100			0.452	1.99					0.346	2.74	0.419	1.55	0.365	1.73	0.31	1.15
COc1cc2c3c(n(CCCNC(=O)OCC4c5ccccc5-c5ccccc54)c(=O)c2cc1OC)-c1cc2c(cc1/C3=C\CCNC(=O)OCC1c3ccccc3-c3ccccc31)OCO2	5.28	14.6	1.42	> 50	1.48	> 14	> 21.6	> 36	> 10.2	> 21.6	> 50	> 50	1.29	10.2	> 42.2	> 50	> 26.3	48.9	> 27.9	> 50
COc1ccc(Cn2cc3c(c2-c2ccccc2)CC(C)(C)c2cnoc2-3)cc1	2.45	> 100	2.47	> 100	3.92	> 100	0.958	> 100	2.9	53.6	2.17	> 100	1.45	7.91	1.78	7.5	3.09	> 100	0.783	> 100
CC(=O)CSCc1ccccn1		> 100		90.7		> 100		> 100		71.4		> 100		7.23		> 100		36.8		> 100
COc1cc2ncnc(Nc3ccc(C)c(O)c3)c2cc1OC	5.48	19.2	> 25	> 25	> 19.2	> 25	> 25	> 25	> 13.4	> 20	> 25	> 25	5.36	18.8	7.91	> 25	> 25	> 25	> 25	> 25
CN(C)C(=O)c1cc2cnc(Nc3ccc(-c4csc5c(=S)cc(N6CCOCC6)oc45)cc3)nc2n1C1CCCC1	0.139	0.495	0.274	> 9.84	0.693	> 50	0.234	1.72	0.971	2.84	0.585	> 50	0.469	3.98	0.774	> 50	0.252	1.45	0.18	> 50
NCC1Nc2ccccc2[C@@H](O)C1O (stereo not given in full)		> 100		> 100		> 100		> 100		> 100		> 100		> 100		> 100		> 100		> 100
COC(=O)C1=CNC=C(C(=O)OC)C1C1=CC(=O)C(C)=CC1=O	31.1	> 54.2	4.3		9.82	24.6	13.6	26.5	16.6	30.9	14.2	30.5	25	66.5	16	30.3	2.9	7.5	17.1	31.8
COC1=C(C)C(=O)c2c(c(COC(N)=O)c3n2CC2C3N2C)C1=O (stereo not given)		0.0671		0.105		0.6		0.117		0.109				0.986		0.0542		0.117		0.143
N=C1C(c2nc3ccccc3s2)=C(O)CN1c1cc(C(F)(F)F)ccc1Cl	18	> 100	21.3	> 100	28.8	> 100	5.06	42.7	29.8	> 100	13.3	77.9	35.7	> 100	25.8	> 100	7.46	53	20.5	> 100
CN1c2ccc(Cl)cc2C(=O)NC1c1ccc([N+](=O)[O-])s1 (stereo not given)		24.6		> 100		21.5		26.3		30.8		36.4		34.2		45.1		26.7		31.9
COc1ccc(/C=C/c2ccnc3ccccc23)c(OC)c1		> 10		> 10		> 10		> 10		> 10		> 10		> 10		> 10		> 10		> 10
COc1cc(-c2ccc3c(c2)NC(=O)/C3=C\c2ccc[nH]2)ccc1O	0.0234	1.66	0.0176	> 16.7	0.377	> 50	0.1	> 50	0.034	> 50	0.0194	> 50	0.026	> 50	0.0193	> 30.2	0.0228	> 16.2	0.0214	> 50
Clc1ccc(C2=Nn3c(COc4ccccc4Cl)nnc3SC2)c(Cl)c1	28.6	> 100	30.6	> 100	31.8	> 100	15.1	35.5	25.1	57.4	24.2	> 100	15	69	19.8	86.1	44.7	> 100	16.9	34
O=C(O)C1OC(n2cc(F)c(=O)[nH]c2=O)CC1O (stereo not given)		> 100		> 100		> 100		> 80.5		> 100		> 100		> 100		> 100		> 100		> 100
COc1nc2ccccc2cc1-c1nc2c(cnn2-c2ccc(Br)cc2)c(=O)[nH]1	0.0163	0.245	0.0238	> 31.8	0.131	> 50	0.0234	> 50	0.0946	9.22	0.0241	> 50	0.0282	4.71	0.0344	13.8	0.0402	6.79	0.0226	> 50
CC(=O)/C(C)=N/NC(=O)c1ccccc1O	> 100	> 100		> 100	> 100	> 100	> 10	> 100	> 100	> 100	> 100	> 100		> 100		> 100	> 100	> 100	> 100	> 100
CN1CCN(CCCOc2ccc3nc(Nc4ccc(Cl)c(C(F)(F)F)c4)ccc3c2)CC1	12.7	28	6	22.1	14.1	30	16.4	31.7	16.5	31.6	16.4	39.1	12.5	32.1	11.9	24.3	14.3	34.2	9.51	23.4
COC1=CC(=O)c2nc(-c3cccc(C)n3)[nH]c2C1=O	> 100	> 100	61.8	> 100	24.7	49.6	30.3	> 100	52.4	> 100	17.1	35.2	25.3	76.7	25.6	73.3	27	> 100	35.4	> 100
COC(C(O)CO)C(O)C(O)C(=O)NNc1ccccc1 (stereo not given)		> 100		> 100		> 100		> 100		> 100		> 100		> 100		> 100		> 100		> 100
C=C1C(=O)O[C@@H]2/C=C(\C)CC/C=C(/COC(C)=O)C[C@@H](OC(C)=O)[C@@H]12		24.2		14.3		33.2		26.4		31.8		26		> 70.2		19.2		> 41.7		34.3
Cc1cccc(N2CCN(C(=S)c3ccc4c(c3)OCO4)CC2)c1	1.14	5.82	6.91	> 100	3.85	> 100	0.64	> 100			0.472	37.5	0.501	5.58	2.34	> 100	8.01	> 100	0.514	> 100
CCCCC(O)(c1ccc(Cl)cc1)C(CN1CCOCC1)c1ccc(Cl)cc1 (stereo not given)	8.15	22.8	14.3	36.2	12.6	27.2	12.4	28.7			10.7	25.7	16.8	46.5	15.7	29.8	10.4	36.2	12.2	29.1
COC(=O)[C@H](C)NC(=O)NC(=O)NC(=O)CI	12.5	25.5	2.03	4.44	17.2	36.3	16.8	34.2	15.4	29.9	20.1	40.8	21.4	54.1	15.4	29.2	3.64	18.3	17.8	35.5
CC(C)(C)c1cc(Br)c(O)c(CN(Cc2cc(C(C)(C)C)cc(Br)c2O)C2CCCCC2)c1		22.6		26.6		26.4		25.3		25.8				28.4		26.8		27.9		29.4
COc1cc2nc3cc([N+](=O)[O-])ccc3c(NCCCNCCO)c2cc1OC	0.186	0.473	0.211	1.41	0.126	0.478			0.187	0.389	0.264	0.624	0.184	0.612	0.194	0.645	0.567	4.34	0.285	0.843
CCOC(=O)c1c(C)n(Cc2ccc(Cl)cc2Cl)c2c1c(CN(C)C)c(O)c1[nH]cnc12	14.7	28.7	2.37	8.18	15.1	28.3			19.9	39.8	15.3	28.7	29.1	81.8	17.2	30.9	7.95	22.1	17.8	35.8
